Measured values published in patent publication US9308260B2, “Anticonvulsive pharmaceutical compositions” (INSERM (INSTITUT NATIONAL DE LA SANTE ET DE LA RECHERCHE …, priority 2007, dated 2016).
“Also recorded” adds a separate entry of the source. Each block holds one compound with its values, some of them ahead of it.

What was measured:
[1] = Blood/plasma amino acid concentrations in vigabatrin-treated rats; type: in vivo, rat
Method: (§1) As described previously (Duboc et al., 2004), Wistar rats Rj Wi IOPS Han and Balb c mice were purchased from Janvier Breeding Center (Le Genest St Isle, France) at 7 weeks. VGB was dissolved in 0.9% NaCl at a concentration of 125 mg/ml. It was administered at 40 mg (125 mg/ml, 0.32 ml) by daily intraperitoneal injection for 45 or 65 days and at 3 mg (60 mg/ml, 0.05 ml) to mice for 29 days (daily dose of about 200 mg/kg in rats and 150 mg/kg in mice). Vitamin B6 (active form) was administered at a dose of 1 mM/kg (solution 154.46 mg/ml) whereas taurine was provided in the drinking water at 0.1 mol/l.
After 65 days of injection, rats were anesthetized for blood sampling. Anesthesia was induced as described above. Under anesthesia an indwelling catheter was placed in the carotid artery. This method allowed obtaining a single, large, good quality blood sample. A 1 mL blood sampling was taken for each rat in a heparinized blood sampler, immediately centrifuged and frozen at −80° C. Automated amino acid ion chromatography (Pasteur Cerba, France) was used for the quantitative determination of total and free amino acids in the samples.
As described previously (Duboc, A., et al. Vigabatrin, the GABA-transaminase inhibitor, damages cone photoreceptors in rats. Annals of neurology Vol. 55, 695-705 (2004).), Wistar rats Rj Wi IOPS Han or BALB/c mice were purchased from Janvier (Le Genest-St-Isle, France) at between six and seven weeks of age. VGB dissolved in 0.9% NaCl was administered at 40 mg (125 mg/ml, 0.32 ml) to rats by daily intraperitoneal injection for 45 or 65 days and at 3 mg (60 mg/ml, 0.05 ml) to mice for 29 days. These daily doses (rats: 200 mg/kg; mice: 150 mg/kg) are in-line with those described for the treatment of epilepsy in animals (Andre, V., Ferrandon, A., Marescaux, C. & Nehlig, A. Vigabatrin protects against hippocampal damage but is not antiepileptogenic in the lithium-pilocarpine model of temporal lobe epilepsy. Epilepsy research Vol. 47, 99-117 (2001)) or in humans (adult patients: 1-6 mg/kg; children: 50-75 mg/kg; or infants: 100-400 mg/kg) (Chiron, C., Dumas, C., Jambaque, I., Mumford, J. & Dulac, O. Randomized trial comparing vigabatrin and hydrocortisone in infantile spasms due to tuberous sclerosis. Epilepsy research Vol. 26, 389-395 (1997); Lux, A. L., et al. The United Kingdom Infantile Spasms Study comparing vigabatrin with prednisolone or tetracosactide at 14 days: a multicentre, randomised controlled trial. Lancet Vol. 364, 1773-1778 (2004); Aicardi, J., Mumford, J. P., Dumas, C. & Wood, S. Vigabatrin as initial therapy for infantile spasms: a European retrospective survey. Sabril IS Investigator and Peer Review Groups. Epilepsia Vol. 37, 638-642 (1996)). Taurine supplementation was given in drinking water at a concentration of 0.1M. […]

Wistar rats [2] = assay: Photopic electroretinogram (ERG) in vigabatrin-treated rats; type: in vivo, rat
Method: as §1
(§2) ERG were recorded as described previously after the last VGB injection (Duboc et al., 2004). Anesthesia was induced by an intramuscular injection of a solution containing ketamine (100 mg/kg) and xylazine (10 mg/kg). After 10 min adaptation to a 2.5 cdm^−2 light intensity, ten recordings were obtained with flash intensity of 10 cdsm^−2 at an interstimulus interval 30 s and subsequently averaged. These photopic ERG measurements were performed after 59 days in rats and 29 days in mice.
As described previously (Duboc, A., et al. Vigabatrin, the GABA-transaminase inhibitor, damages cone photoreceptors in rats. Annals of neurology Vol. 55, 695-705 (2004).), Wistar rats Rj Wi IOPS Han or BALB/c mice were purchased from Janvier (Le Genest-St-Isle, France) at between six and seven weeks of age. VGB dissolved in 0.9% NaCl was administered at 40 mg (125 mg/ml, 0.32 ml) to rats by daily intraperitoneal injection for 45 or 65 days and at 3 mg (60 mg/ml, 0.05 ml) to mice for 29 days. […]
Photopic ERGs were recorded after the last VGB injection, as described previously (Duboc, A., et al. Vigabatrin, the GABA-transaminase inhibitor, damages cone photoreceptors in rats. Annals of neurology Vol. 55, 695-705 (2004).). […]

BALB/c mice [3] = assay: Photopic electroretinogram (ERG) in vigabatrin-treated mice; type: in vivo, mouse; conditions: 29 days
Method: as §1, §2
(§3) As described previously (Duboc, A., et al. Vigabatrin, the GABA-transaminase inhibitor, damages cone photoreceptors in rats. Annals of neurology Vol. 55, 695-705 (2004).), Wistar rats Rj Wi IOPS Han or BALB/c mice were purchased from Janvier (Le Genest-St-Isle, France) at between six and seven weeks of age. VGB dissolved in 0.9% NaCl was administered at 40 mg (125 mg/ml, 0.32 ml) to rats by daily intraperitoneal injection for 45 or 65 days and at 3 mg (60 mg/ml, 0.05 ml) to mice for 29 days. These daily doses (rats: 200 mg/kg; mice: 150 mg/kg) are in-line with those described for the treatment of epilepsy in animals (Andre, V., Ferrandon, A., Marescaux, C. & Nehlig, A. Vigabatrin protects against hippocampal damage but is not antiepileptogenic in the lithium-pilocarpine model of temporal lobe epilepsy. Epilepsy research Vol. 47, 99-117 (2001)) or in humans (adult patients: 1-6 mg/kg; children: 50-75 mg/kg; or infants: 100-400 mg/kg) (Chiron, C., Dumas, C., Jambaque, I., Mumford, J. & Dulac, O. Randomized trial comparing vigabatrin and hydrocortisone in infantile spasms due to tuberous sclerosis. Epilepsy research Vol. 26, 389-395 (1997); Lux, A. L., et al. The United Kingdom Infantile Spasms Study comparing vigabatrin with prednisolone or tetracosactide at 14 days: a multicentre, randomised controlled trial. Lancet Vol. 364, 1773-1778 (2004); Aicardi, J., Mumford, J. P., Dumas, C. & Wood, S. Vigabatrin as initial therapy for infantile spasms: a European retrospective survey. Sabril IS Investigator and Peer Review Groups. Epilepsia Vol. 37, 638-642 (1996)). Taurine supplementation was given in drinking water at a concentration of 0.1M. Light intensity in the animal cages ranged between 125 and 130 lux for rats and between 70 and 85 lux for mice.
Photopic ERGs were recorded after the last VGB injection, as described previously (Duboc, A., et al. Vigabatrin, the GABA-transaminase inhibitor, damages cone photoreceptors in rats. Annals of neurology Vol. 55, 695-705 (2004).). Anesthesia was induced by intraperitoneal injection (0.8 to 1.2 ml/kg) of a solution containing ketamine (40 mg/ml) and xylazine (4 mg/ml Rompum). Animals were light-adapted for 10 minutes with a background light of 25 cdm^−2. Light flashes were then applied on this background light; the light intensity of the flash was 10 cdsm^−2 for the mouse experiments and for the rats maintained in darkness (FIGS. 2, 6) or 25 cdsm^−2 for other experiments (FIGS. 3, 5). Ten recordings were averaged with an interstimulus interval of 30 s.

Wistar rats [4] = assay: Retinal histology quantification in vigabatrin-treated rats; type: in vivo, rat
Method: as §3, with “mice. […]” for “mice.”
(§4) For quantification, vertical sections along the dorso-ventral axis were selected at the optic nerve. Following DAPI nuclear staining, the lengths of disorganised retinal areas were measured; GFAP immunostaining was used for detection and quantificationof retinal areas with reactive gliosis. […]

BALB/c mice [5] = assay: Retinal histology quantification in vigabatrin-treated mice; type: in vivo, mouse
Method: as §3
Eye cups were fixed overnight at 4° C. in 4% (wt/vol) paraformaldehyde in phosphate buffered saline (PBS; 0.01M, pH 7.4). The tissue was cryoprotected in successive solutions of PBS containing 10%, 20% and 30% sucrose at 4° C., oriented along the dorso-ventral axis and embedded in OCT (Labonord, Villeneuve d′Ascq, France). Retinal sections (8-10 μm thickness) were permeabilised for five minutes in PBS containing 0.1% Triton X-100 (Sigma, St. Louis, Mo.), rinsed, and incubated in PBS containing 1% bovine serum albumin (Eurobio, Les-Ulis, France), 0.1% Tween 20 (Sigma), and 0.1% sodium azide (Merck, Fontenay-Sous-Bois, France) for two hours at room temperature. The primary antibody added to the solution was incubated for two hours at room temperature. Polyclonal antibodies were directed against VGluT1 (1:2000, Chemicon), rabbit GFAP (1/400, Dako, USA) and mouse cone arrestin (Zhu, X., et al. Mouse cone arrestin expression pattern: light induced translocation in cone photoreceptors. Molecular vision Vol. 8, 462-471 (2002)) (Luminaire junior, LUMIj, 1:20,000). Monoclonal antibodies were directed against Goa (1:2000, Chemicon). Sections were rinsed and then incubated with the secondary antibody, goat anti-rabbit IgG or rabbit anti-mouse IgG conjugated to either Alexa TM594 or Alexa TM488 (1:500, Molecular Probes, Eugene, Oreg.) for two hours. […]
as §4

[6] = Plasma taurine levels in infants with infantile spasms receiving VGB therapy; type: in vivo, human; conditions: for Taurine level: measured
Method: Blood samples were collected in haemolysis tubes containing heparin (14 IU/ml) and centrifuged (2200 g, 15 min). Plasma amino-acid analysis was performed by ion-exchange chromatography with nihydrin detection using a JEOL AMINOTAC analyser.
We then evaluated whether these findings have any clinical relevance in patients with epilepsy. Plasma taurine levels were reviewed retrospectively in patients presenting infantile spasms, who had received VGB treatment for at least six months in Necker Hospitals for the last 3 years. Plasma amino-acid levels are routinely measured in patients with infantile spasms as part of their etiological work-up, particularly when brain RMI is negative. Data were available in six patients (Table 2 hereunder). […] For one of these two patients (patient 2), the taurine level was measured before starting a 15 month period of VGB therapy and this taurine level was normal. In patient 6, the taurine level was in the lower part of the normal range, but this measurement could have been overestimated by the delayed blood centrifugation. Thus, taurine levels seem to be decreased in VGB-treated epileptic infants.

[7] = vigabatrin alone versus control, listed as Vigabatrin
[8] = vigabatrin alone versus control, listed as vigabatrin
[9] = supplementation in addition to vigabatrin
[10] = VGB with taurine supplementation versus without, p<0.001

- Decrease of taurine level versus control animals ([1]; VGB-treated rats, 65 days, p<0.05): 67%
- Reduction of methionine concentration versus control animals ([1]; VGB-treated rats, 65 days, significant): 22%
- Reduction of glutamic acid concentration versus control animals ([1]; VGB-treated rats, 65 days, statistically significant): 56%
- Photopic ERG amplitude (Wistar rats [2]; [7]): decrease
- Photopic ERG amplitude (Wistar rats [2]; [8]): decrease in amplitude
- Photopic ERG amplitude (BALB/c mice [3]; [7]): decrease
- Photopic ERG amplitude (BALB/c mice [3]; [8]): decrease in amplitude
- GFAP immunostaining (Wistar rats [4]; VGB alone): increase in GFAP immunostaining
- Sprouting of bipolar cell dendrites (BALB/c mice [5]; VGB alone): observed
- Density of cone outer and inner segments (BALB/c mice [5]; VGB alone versus control, p<0.001): lower densities
- Taurine level ([6]; patient 1, VGB, normal 70 ± 22, delay to plasma preparation <2 h): und*
- Taurine level ([6]; patient 2, VGB, normal 70 ± 22, delay <2 h): und
- Taurine levels in VGB-treated epileptic infants (overall) ([6]; six patients, VGB for at least six months): decreased
Structure (SMILES): C=CC(N)CCC(=O)O (stereo not drawn) [VGB, 4-amino-5-hexenoic acid]
- Photopic ERG amplitude (BALB/c mice [3]; vigabatrin alone versus control): significantly lower photopic ERG amplitude than the control group

Structure (SMILES): NCCS(=O)(=O)O [taurine, 2-aminoethanesulfonic acid]
- Plasma levels of taurine ([1]; taurine 0.1M in drinking water of VGB-treated rats, n=7): increased above those of control animals
- Photopic ERG amplitude (Wistar rats [2]; supplementation in addition to vigabatrin, versus vigabatrin alone): decreased less than in vigabatrin alone; also recorded: greater in VGB-treated animals receiving taurine supplementation; also recorded: smaller decrease in photopic ERG amplitude
- Photopic ERG amplitude (BALB/c mice [3]; [9]): no longer statistically significant; also recorded: smaller decrease in photopic ERG amplitude
- Photopic ERG amplitude (BALB/c mice [3]; supplementation in addition to vigabatrin, listed as Taurine): suppressed this decrease in photopic ERG amplitude
- GFAP immunostaining (Wistar rats [4]; [10]): less extensive in animals receiving taurine supplementation
- Cone segment density (Wistar rats [4]; VGB with taurine supplementation versus without, p<0.05): greater in the VGB-treated group with taurine supplementation
- Sprouting of bipolar cell dendrites (BALB/c mice [5]; VGB with taurine supplementation): completely suppressed
- Disorganisation of the outer nuclear layer (areas of retinal disorganisation) (BALB/c mice [5]; [10]): smaller areas of retinal disorganisation
- Density of cone outer and inner segments (BALB/c mice [5]; VGB with taurine supplementation, p<0.001): prevented this decrease in cone density

Structure (SMILES): Cc1ncc(COP(=O)(O)O)c(C=O)c1O [vitamin B6, pyridoxal-5′-phosphate]
- Photopic ERG amplitude (BALB/c mice [3]; [9]): reduced the decrease in photopic ERG amplitude; also recorded: smaller decrease in photopic ERG than with vigabatrin alone
